Patent US20240246979A1, “cGAS INHIBITORS” (Eli Lilly and Company, priority 2022, published 2024)

Assays:
cGAS [1] = biological target: T1, cGAS (Homo sapiens, UniProt Q8N884); test: Cellular assay to measure cGAS activity (IFNb AlphaLISA in THP1 cells stimulated by RDG-Adenovirus-GFP); format: cell-based; design: host or cells: THP1 cells differentiated with PMA and stimulated with RDG-Adenovirus-GFP; settings: PMA-differentiated THP1 cells, RDG-Adenovirus-GFP at 1000 MOI; inhibition of IFNb production as marker for cGAS activity
T1 sequence (Q8N884 whole entry): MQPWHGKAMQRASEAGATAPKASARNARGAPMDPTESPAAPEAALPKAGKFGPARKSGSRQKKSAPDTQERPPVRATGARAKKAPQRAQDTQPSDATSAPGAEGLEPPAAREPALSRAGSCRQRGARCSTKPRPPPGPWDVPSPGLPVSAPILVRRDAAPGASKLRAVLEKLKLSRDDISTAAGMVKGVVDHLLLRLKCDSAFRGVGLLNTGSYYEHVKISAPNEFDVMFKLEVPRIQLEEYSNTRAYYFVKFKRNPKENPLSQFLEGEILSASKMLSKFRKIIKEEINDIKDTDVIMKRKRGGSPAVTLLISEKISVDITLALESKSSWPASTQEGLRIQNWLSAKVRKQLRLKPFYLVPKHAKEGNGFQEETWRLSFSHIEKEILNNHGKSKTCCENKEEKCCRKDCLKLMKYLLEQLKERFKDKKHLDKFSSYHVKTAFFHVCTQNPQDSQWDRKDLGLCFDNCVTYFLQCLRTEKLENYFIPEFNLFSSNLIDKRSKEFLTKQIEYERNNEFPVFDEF
In short: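 PMA-differentiated THP1 cells were infected with RDG-Adenovirus-GFP at 1000 MOI for 4 h, then exposed overnight to test compounds. IFNb in the supernatant was quantified by AlphaLISA as a cGAS activity marker, and IC50 was fitted with a 4-parameter logistic equation.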

cGAS [2] = biological target: T1, cGAS; test: In vitro inhibition assay of cGAS activity (cGAMP production, RapidFire mass spectrometry); format: biochemical; design: Insert cDNA encoding full-length of human cGAS; His6; made in house; host or cells: E. coli BL21(DE3); settings: 10 nM recombinant human cGAS, 60 nM 75-bp dsDNA, 50 μM ATP, 50 μM GTP, 3 hrs
In short: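 His6-tagged full-length human cGAS (10 nM, E. coli-expressed) was incubated for 3 hrs at ambient temperature with 60 nM 75-bp dsDNA, 50 μM ATP and 50 μM GTP in Tris pH 7.5/MgCl2 buffer with compound dilutions. cGAMP was quantified by RapidFire mass spectrometry against an internal standard, and IC50 was obtained by 4-parameter logistic fit.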

## C[C@@H]1C(=O)NCCc2c1c1c(NC(=O)CO)cc(Cl)c(Cl)c1n2CC(F)(F)F (single isomer, unassigned) [Example 187, (S)—N-(7,8-Dichloro-1-methyl-2-oxo-6-(2,2,2-trifluoroethyl)-1,2,3,4,5,6-hexahydroazepino[4,5-b]indol-10-yl)-2-hydroxyacetamide or (R)—N-(7,8-Dichloro-1-methyl-2-oxo-6-(2,2,2-trifluoroethyl)-1,2,3,4,5,6-hexahydroazepino[4,5-b]indol-10-yl)-2-hydroxyacetamide]
cGAS [1]
  IC50: > 10 µM
cGAS [2]
  IC50: > 39.8 µM

## CC1C(=O)NCCc2[nH]c3c(Cl)c(Cl)cc(NCc4cocn4)c3c21 (stereo in doubt) [Example 58, (S′)-7,8-Dichloro-1-methyl-10-((oxazol-4-ylmethyl)amino)-3,4,5,6-tetrahydroazepino[4,5-b]indol-2(1H)-one Or (R)-7,8-Dichloro-1-methyl-10-((oxazol-4-ylmethyl)amino)-3,4,5,6-tetrahydroazepino[4,5-b]indol-2(1H)-one]
cGAS [1]
  IC50: 0.577 µM
cGAS [2]
  IC50: 0.0165 µM

## CC1C(=O)NCCc2[nH]c3c(Cl)c(Cl)cc(NCc4cocn4)c3c21 (stereo in doubt) [Example 59, (S′)-7,8-Dichloro-1-methyl-10-((oxazol-4-ylmethyl)amino)-3,4,5,6-tetrahydroazepino[4,5-b]indol-2(1H)-one Or (R)-7,8-Dichloro-1-methyl-10-((oxazol-4-ylmethyl)amino)-3,4,5,6-tetrahydroazepino[4,5-b]indol-2(1H)-one]
cGAS [1]
  IC50: > 10 µM
cGAS [2]
  IC50: 2 µM

## CC1C(=O)NCCc2[nH]c3c(Cl)c(Cl)cc(NC4CCOC4)c3c21 (stereo in doubt) [Example 66, 7,8-Dichloro-1-methyl-10-(((R)-tetrahydrofuran-3-yl)amino)-3,4,5,6-tetrahydroazepino[4,5-b]indol-2(1H)-one]
cGAS [1]
  IC50: 4.15 µM
cGAS [2]
  IC50: 0.0375 µM

## Cn1ncc(-c2cc(Cl)c(F)c3[nH]c4c(c23)CC(=O)NCC4)n1 [Example 1, 8-Chloro-7-fluoro-10-(2-methyl-2H-1,2,3-triazol-4-yl)-3,4,5,6-tetrahydroazepino[4,5-b]indol-2(1H)-one]
cGAS [1]
  IC50: 2.64 µM
cGAS [2]
  IC50: 0.0334 µM

## Cn1ncc(-c2cc(Cl)c(Cl)c3[nH]c4c(c23)CC(=O)NCC4)n1 [Example 2, 7,8-Dichloro-10-(2-methyl-2H-1,2,3-triazol-4-yl)-3,4,5,6-tetrahydroazepino[4,5-b]indol-2(1H)-one]
cGAS [1]
  IC50: 0.819 µM
cGAS [2]
  IC50: 0.0205 µM

## CNC(=O)CC1CNC(=O)Cc2c1[nH]c1c(Cl)c(Cl)cc(-c3cnn(C)n3)c21 (stereo not shown) [Example 6, 2-(7,8-Dichloro-10-(2-methyl-2H-1,2,3-triazol-4-yl)-2-oxo-1,2,3,4,5,6-hexahydroazepino[4,5-b]indol-5-yl)-N-methylacetamide]
cGAS [1]
  IC50: > 10 µM
cGAS [2]
  IC50: 0.0156 µM

## CN(C)C(=O)CC1CNC(=O)Cc2c1[nH]c1c(Cl)c(Cl)cc(-c3cnn(C)n3)c21 (stereo not shown) [Example 7, 2-(7,8-Dichloro-10-(2-methyl-2H-1,2,3-triazol-4-yl)-2-oxo-1,2,3,4,5,6-hexahydroazepino[4,5-b]indol-5-yl)-N,N-dimethylacetamide]
cGAS [1]
  IC50: 0.661 µM
cGAS [2]
  IC50: 0.0281 µM

## CC1C(=O)NCCc2[nH]c3c(Cl)c(Cl)cc(-c4cnn(C)n4)c3c21 (stereo not shown) [Example 9, 7,8-Dichloro-1-methyl-10-(2-methyl-2H-1,2,3-triazol-4-yl)-3,4,5,6-tetrahydroazepino[4,5-b]indol-2(1H)-one]
cGAS [1]
  IC50: 2.16 µM
cGAS [2]
  IC50: 0.087 µM

## COc1cc(Cl)c(Cl)c2[nH]c3c(c12)C(C)C(=O)NCC3 (stereo not shown) [Example 10, 7,8-Dichloro-10-methoxy-1-methyl-3,4,5,6-tetrahydroazepino[4,5-b]indol-2(1H)-one]
cGAS [1]
  IC50: 2.73 µM
cGAS [2]
  IC50: 0.124 µM

## CCC1C(=O)NCCc2[nH]c3c(Cl)c(Cl)cc(NC(=O)CO)c3c21 (stereo not shown) [Example 11, N-(7,8-Dichloro-1-ethyl-2-oxo-1,2,3,4,5,6-hexahydroazepino[4,5-b]indol-10-yl)-2-hydroxyacetamide]
cGAS [1]
  IC50: 1.76 µM
cGAS [2]
  IC50: 0.0454 µM

## CC1C(=O)NCCc2[nH]c3c(Cl)c(Cl)cc(OCCO)c3c21 (stereo not shown) [Example 18, 7,8-Dichloro-10-(2-hydroxyethoxy)-1-methyl-3,4,5,6-tetrahydroazepino[4,5-b]indol-2(1H)-one]
cGAS [1]
  IC50: 2.07 µM
cGAS [2]
  IC50: 0.0709 µM

## O=C1Cc2c([nH]c3c(Cl)c(Cl)cc(-c4cn[nH]c4)c23)CCN1 [Example 19, 7,8-Dichloro-10-(1H-pyrazol-4-yl)-3,4,5,6-tetrahydroazepino[4,5-b]indol-2(1H)-one]
cGAS [1]
  IC50: > 10 µM
cGAS [2]
  IC50: 0.0936 µM

## NC(=O)COc1cc(Cl)c(Cl)c2[nH]c3c(c12)CC(=O)NCC3 [Example 20, 2-((7,8-Dichloro-2-oxo-1,2,3,4,5,6-hexahydroazepino[4,5-b]indol-10-yl)oxy)acetamide]
cGAS [1]
  IC50: > 10 µM
cGAS [2]
  IC50: 0.132 µM

## O=C1Cc2c([nH]c3c(Cl)c(Cl)cc(NCCCO)c23)CCN1 [Example 22, 7,8-Dichloro-10-((3-hydroxypropyl)amino)-3,4,5,6-tetrahydroazepino[4,5-b]indol-2(1H)-one]
cGAS [1]
  IC50: 4.58 µM
cGAS [2]
  IC50: 0.0459 µM

## O=C1Cc2c([nH]c3c(Cl)c(Cl)cc(OCCCO)c23)CCN1 [Example 23, 7,8-Dichloro-10-(3-hydroxypropoxy)-3,4,5,6-tetrahydroazepino[4,5-b]indol-2(1H)-one]
cGAS [1]
  IC50: 7.79 µM
cGAS [2]
  IC50: 0.118 µM

## O=C1Cc2c([nH]c3c(Cl)c(Cl)cc(NC(=O)CO)c23)CCN1 [Example 24, N-(7,8-Dichloro-2-oxo-1,2,3,4,5,6-hexahydroazepino[4,5-b]indol-10-yl)-2-hydroxyacetamide]
cGAS [1]
  IC50: 6.91 µM
cGAS [2]
  IC50: 0.0884 µM

## Cc1noc(-c2cc(Cl)c(Cl)c3[nH]c4c(c23)CC(=O)NCC4)n1 [Example 25, 7,8-Dichloro-10-(3-methyl-1,2,4-oxadiazol-5-yl)-3,4,5,6-tetrahydroazepino[4,5-b]indol-2(1H)-one]
cGAS [1]
  IC50: > 10 µM
cGAS [2]
  IC50: 0.0271 µM

## O=C1Cc2c([nH]c3c(Cl)c(Cl)cc(-c4nc(CO)no4)c23)CCN1 [Example 26, 7,8-Dichloro-10-(3-(hydroxymethyl)-1,2,4-oxadiazol-5-yl)-3,4,5,6-tetrahydroazepino[4,5-b]indol-2(1H)-one]
cGAS [1]
  IC50: > 10 µM
cGAS [2]
  IC50: 0.133 µM

## O=C1Cc2c([nH]c3c(Cl)c(Cl)cc(-c4cnco4)c23)CCN1 [Example 27, 7,8-Dichloro-10-(oxazol-5-yl)-3,4,5,6-tetrahydroazepino[4,5-b]indol-2(1H)-one]
cGAS [1]
  IC50: > 10 µM
cGAS [2]
  IC50: 0.11 µM

## N#CCc1cc(Cl)c(Cl)c2[nH]c3c(c12)CC(=O)NCC3 [Example 28, 2-(7,8-Dichloro-2-oxo-1,2,3,4,5,6-hexahydroazepino[4,5-b]indol-10-yl)acetonitrile]
cGAS [1]
  IC50: 0.914 µM
cGAS [2]
  IC50: 0.0581 µM

## O=C1Cc2c([nH]c3c(Cl)c(Cl)cc(-c4nnc[nH]4)c23)CCN1 [Example 29, 7,8-Dichloro-10-(4H-1,2,4-triazol-3-yl)-3,4,5,6-tetrahydroazepino[4,5-b]indol-2(1H)-one]
cGAS [1]
  IC50: > 10 µM
cGAS [2]
  IC50: 0.122 µM

## CCNc1cc(Cl)c(Cl)c2[nH]c3c(c12)CC(=O)NCC3 [Example 30, 7,8-Dichloro-10-(ethylamino)-3,4,5,6-tetrahydroazepino[4,5-b]indol-2(1H)-one]
cGAS [1]
  IC50: 3.73 µM
cGAS [2]
  IC50: 0.119 µM
